TGI data for three compounds are collected here from PubChem BioAssay (NCI).

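The compound was tested at five concentrations on cells cultured in 96-well plates, with a 48-hour exposure period. At the TGI there is no net growth.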

Common to all, as to assay: NCI-60 cell line screen, 48 h
For assay [1], the system named is NCI-H522 lung.
Assay [2] relates to U251 CNS.
The test system of assay [3] is DU-145 prostate.
Assay [4] has as its system HCT-116 colon.
Assay [5] deals with EKVX NSCLC.
Assay [6] relates to A498 renal.
Assay [7] has as its system OVCAR-8 ovarian.
Assay [8] deals with HOP-62 NSCLC.
The subject of assay [9] is SK-OV-3 ovarian.
Assay [10] relates to KM12 colon.

`O=c1c2c([nH]c3nccn13)CCCC2`: the TGI in assay [1], in assay [2], in [3], in assay [4], in [5] and in [6] was above 10 µM each time. Further, the TGI in assay [7], in assay [8], in assay [9] and in assay [10] was above 10 µM throughout.
With `C=C1C(C2(C)C=CC(=O)OC3(C)COC(=O)CC32)C(OC=O)C(OC(=O)C(O)C(C)CC)C2(C)C(c3ccoc3)CC(OC(C)=O)C12O` (stereo not given), the TGI in assay [1], in assay [2], in assay [3], in assay [4], in assay [5] and in assay [6] was above 100 µM throughout. For the same compound, the TGI in [7], in [8], in assay [9] and in [10] was above 100 µM in each case.
On to `COc1ccc(/C=c2/[nH]c(=O)/c(=C\c3ccc(OCc4ccccc4)cn3)[nH]c2=O)cc1`, for which the TGI in assay [1], in [2], in assay [3], in assay [4], in assay [5] and in [6] was above 100 µM throughout. Moreover, the TGI in [7], in [8], in [9] and in [10] was above 100 µM in each case.
